For assay [1], the system named is laying hens. Put plainly: Henhouse test on laying hens, calcium L-pidolate in feedstuff; eggs examined by candling.
Source text: The downgraded percentage corresponds to the percentage of eggs with cracked shells, which shell having been carefully examined by candling so as to detect any rupture of the shell (cracks, holes, etc.). The percentage of uncracked egg shells was computed from eggs on which no shell rupture was observed by candling.
The subject of assay [2] is laying hens. The assay can be described thus: Other tests on shell quality of older hens supplied with calcium L-pidolate. It is filed as in vivo. The settings on record: between the 60th week and the 72nd week. From the text: The decrease in quality of the shell increases between the 55th and 65th week. The hens are generally sacrificed at 68 to 70 weeks. […] As a result, the duration of exploitation of the hen can thus be prolonged so as to improve the profit of raising by reducing the hen/egg cost.

We go through one substance from patent US6362215B1 (priority 1998, dated 2002).

Take calcium L-pidolate: the “persistence of improvements in egg color (pure white eggs or chalky appearance) after stopping treatment” value in assay [1] (after stopping treatment) is given as “persisted eight to ten days after stopping treatment”. Also, the “percentage of downgraded eggs (eggs with cracked shells)” value in assay [1] (day after the day of administration in feedstuff, 19,300 hens, candling) is on record as “decrease of the percentage of downgraded eggs”. Moreover, the “effect on quality, in particular mechanical strength of the egg shells, after end of treatment” value in assay [1] (day after the end of treatment) was “decreased and disappeared completely”. Besides, in assay [1] (tests of FIG. 1, winter, October-November), the “percentage of downgraded eggs over the test period” value is on record as “maintaining the percentage of downgraded eggs at a substantially constant value”. For the same substance, the “decrease in quality of the shell” value in assay [2] is “can be stabilized”.
